PMC7619633, “Targeting of multiple tumor-associated antigens by individual T cell receptors during successful cancer immunotherapy” (Cell, 2023)

Experiments:
MM909.11 TIL = assay: HLA A*03:01-TAG tetramer staining of TIL from patient MM909.11; type: binding, human
Protocol: (§1) Staining was performed in 5 mL polystyrene test tubes (1 wash per step) or 96U well plates (3 washes per step), using 0.5-1 x10^5 cells per sample. Dead cells were detected with 2 µL of a 1:40 PBS dilution of LIVE/DEAD® Fixable Violet Dead Stain Kit (VIVID). Samples were acquired on a BD FACSCanto II (BD Biosciences, Franklin Lakes, NJ, USA) or ACEA NovoCyte 3005 with NovoSampler pro (ACEA Biosciences, Agilent, CA, US), then analyzed with FlowJo software (Tree Star Inc., Ashland, Oregon, US). Cells were gated on FSC-A versus SSC-A, single cells (FSC-A versus FSC-H), then viable cells (marker of choice versus VIVID). Cell sorting was performed on a BD FACS Aria III (BD Biosciences) by Central Biotechnology Services at Cardiff University. T cells for TCR sequencing were captured in RLT lysis buffer supplemented with 40 mM DTT or RNAprotect reagent (both from Qiagen). T cells or established cell lines sorted for culture were collected in their respective culture media supplemented with 25 µg mL^-1 of Amphotericin B (Thermo Fisher Scientific) and 10 µg mL^-1 of Ciprofloxacin (Ciproxin, Bayer, Leverkusen, Germany).
(§2) Monomeric pMHC were generated in house as described below and used to assemble tetramers as previously described.[52] […]

MM909.15 TIL = assay: HLA A*03:01-TAG tetramer staining of TIL from patient MM909.15; type: binding, human
Protocol: as §1, §2

[1] = test system: MEL5 and MEL8 TCRs, MM909.24 TIL; assay: Recognition of the 9-mer BST2 peptide (MIP-1β ELISA and tetramer staining); type: cell-based, human; details: Figures S7C–S7F
Protocol: In brief, tetramers were assembled by 5 consecutive 20 min incubations of PE or APC conjugated streptavidin (both from Life Technologies) with pMHC monomer at 1:4 molar ratio, on ice in the dark. Once assembled, 1:100 protease inhibitor (set 1, Merk, London, UK) and PBS was added to a working concentration of 0.1 mg mL^-1 (with regards to the pMHC component). Tetramers were stored at 4°C in the dark and used within 3 days of assembly. To remove aggregates, tetramers were centrifuged at full speed in a microfuge for 1 min immediately before staining samples. Tetramer staining was performed as previously described.[52],[53] Briefly, T cell clones, lines, TILs or Jurkat cells were pre-treated with 50 nM of the protein kinase inhibitor Dasatinib at 37°C for 10-30 min in 100 µL of FACS buffer (PBS with 2% FBS), followed by the addition of 0.5 µg tetramer (with respect to pMHC component) without washing or pre-chilling, and incubated for 30 min on ice and in the dark. Cells were then washed in PBS and stained with VIVID for 5 mins at room temperature. […]
T cells were ‘rested’ overnight in R5 medium (R10 but with 5% FBS) to help reduce spontaneous release of chemokines and cytokines. […] T cell activation towards peptide was determined by MIP-1β release, and for cancer or healthy cell targets it was determined by TNF release. […]

“RLSNRLLLR [TAG, HLA A*03:01-restricted peptide from cancer/testis tumor antigen gene (TAG); peptide and tetramer]” was tested, and the “% of TIL stained with TAG tetramer” value (MM909.11 TIL; HLA A*03:01-RLSNRLLLR tetramer, MM909.11 TIL (passage-2), Fig S4N) was 0.67%, the “TAG T cells as share of the anti-melanoma response of the TIL” value (MM909.11 TIL; MM909.11, from % tetramer+ cells and TIL reactivity toward autologous melanoma) was 17.5% and the “% of TIL stained with TAG tetramer” value (MM909.15 TIL; HLA A*03:01-RLSNRLLLR tetramer, MM909.15 TIL (passage-2), Fig S4N) was 0.05%. For the same sequence, the “TAG T cells as share of the anti-melanoma response of the TIL” value (MM909.15 TIL; MM909.15, from % tetramer+ cells and TIL reactivity toward autologous melanoma) was 1.1%.
With “LLLGIGILV [BST2_9, previously described 9-mer BST2 peptide]” the “Recognition by TCRs of this study” value [1] was “not recognized”.
